The nature of assay [1]: Antiproliferative activity against human CL1-5 cells assessed as reduction in cell viability incubated for 72 hrs by SRB assay. It is filed as functional, cell-based. The note with it: CL1-5, 72 h. (In general: In SRB staining, fixed cells bind dye roughly in proportion to their protein.)
In the next assay the test system is NCI-H1975. Briefly: Cell cycle arrest in human NCI-H1975 cells assessed as BrdU positive cells at 140 nM incubated for 24 hrs by BrdUrd incorporation assay (reference value: 44.5 +/- 2 %). It is filed as functional.
Assay [2] concerns the target DNA replication licensing factor MCM2 (Homo sapiens) (UniProt P49736). Kind of assay: Induction of ubiquitination of MCM2 in human NCI-H1975 cells incubated for 48 hrs by immunoblot analysis (reference value: 1). The format is cell-based.
The target of assay [3] is T1, DNA replication licensing factor MCM3 (Homo sapiens) (UniProt P25205).
T1 sequence (whole entry): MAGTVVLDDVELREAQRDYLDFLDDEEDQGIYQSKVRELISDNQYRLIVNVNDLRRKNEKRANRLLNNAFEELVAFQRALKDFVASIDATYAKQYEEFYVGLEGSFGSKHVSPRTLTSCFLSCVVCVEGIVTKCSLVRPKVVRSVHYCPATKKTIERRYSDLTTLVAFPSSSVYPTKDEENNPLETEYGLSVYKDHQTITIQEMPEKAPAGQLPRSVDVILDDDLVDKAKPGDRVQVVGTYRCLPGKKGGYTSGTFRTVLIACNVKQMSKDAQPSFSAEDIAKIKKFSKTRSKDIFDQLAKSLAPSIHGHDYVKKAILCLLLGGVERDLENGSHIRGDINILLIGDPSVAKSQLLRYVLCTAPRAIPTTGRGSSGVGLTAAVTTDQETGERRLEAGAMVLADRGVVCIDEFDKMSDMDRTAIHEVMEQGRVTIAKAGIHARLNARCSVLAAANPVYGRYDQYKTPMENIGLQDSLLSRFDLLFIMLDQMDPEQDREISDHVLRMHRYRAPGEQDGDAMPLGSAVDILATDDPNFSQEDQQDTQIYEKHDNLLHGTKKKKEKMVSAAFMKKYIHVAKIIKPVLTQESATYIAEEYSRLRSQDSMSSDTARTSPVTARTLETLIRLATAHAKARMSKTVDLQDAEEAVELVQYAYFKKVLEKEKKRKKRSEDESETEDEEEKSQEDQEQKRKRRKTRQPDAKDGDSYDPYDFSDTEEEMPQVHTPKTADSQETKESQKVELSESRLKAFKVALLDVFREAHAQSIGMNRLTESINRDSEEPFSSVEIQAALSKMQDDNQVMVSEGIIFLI
Briefly: Induction of ubiquitination of MCM3 in human NCI-H1975 cells incubated for 48 hrs by immunoblot analysis (reference value: 1). It is filed as cell-based. (In general: In western blotting, separated proteins are transferred to a membrane and probed.)

Assay [4] has as its target T2, DNA replication licensing factor MCM4 (Homo sapiens) (UniProt P33991).
T2 sequence (whole entry): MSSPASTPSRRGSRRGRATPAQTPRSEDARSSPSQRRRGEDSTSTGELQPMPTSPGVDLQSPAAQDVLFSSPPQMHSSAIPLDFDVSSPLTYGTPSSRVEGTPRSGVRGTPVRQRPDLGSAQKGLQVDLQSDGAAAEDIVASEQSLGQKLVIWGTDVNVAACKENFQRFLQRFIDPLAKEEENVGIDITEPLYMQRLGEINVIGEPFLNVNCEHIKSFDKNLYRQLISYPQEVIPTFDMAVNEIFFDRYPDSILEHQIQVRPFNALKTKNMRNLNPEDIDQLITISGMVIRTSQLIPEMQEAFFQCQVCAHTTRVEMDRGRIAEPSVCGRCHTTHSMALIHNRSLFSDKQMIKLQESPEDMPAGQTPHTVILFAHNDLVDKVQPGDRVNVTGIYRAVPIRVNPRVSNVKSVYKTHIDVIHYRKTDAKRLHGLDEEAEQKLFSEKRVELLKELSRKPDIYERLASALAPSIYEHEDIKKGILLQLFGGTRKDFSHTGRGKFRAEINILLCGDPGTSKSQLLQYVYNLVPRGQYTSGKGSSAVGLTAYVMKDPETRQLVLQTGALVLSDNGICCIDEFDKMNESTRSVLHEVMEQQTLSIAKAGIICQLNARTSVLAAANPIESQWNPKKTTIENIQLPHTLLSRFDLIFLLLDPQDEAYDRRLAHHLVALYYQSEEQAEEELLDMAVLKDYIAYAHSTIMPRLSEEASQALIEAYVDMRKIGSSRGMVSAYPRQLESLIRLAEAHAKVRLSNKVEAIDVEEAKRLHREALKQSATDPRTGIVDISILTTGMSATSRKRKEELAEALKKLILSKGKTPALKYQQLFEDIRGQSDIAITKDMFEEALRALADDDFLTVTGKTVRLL
Briefly: Induction of ubiquitination of MCM4 in human NCI-H1975 cells incubated for 72 hrs by immunoblot analysis (reference value: 1). It is filed as cell-based.

The target of assay [5] is T3, DNA replication licensing factor MCM5 (Homo sapiens) (UniProt P33992).
T3 sequence (whole entry): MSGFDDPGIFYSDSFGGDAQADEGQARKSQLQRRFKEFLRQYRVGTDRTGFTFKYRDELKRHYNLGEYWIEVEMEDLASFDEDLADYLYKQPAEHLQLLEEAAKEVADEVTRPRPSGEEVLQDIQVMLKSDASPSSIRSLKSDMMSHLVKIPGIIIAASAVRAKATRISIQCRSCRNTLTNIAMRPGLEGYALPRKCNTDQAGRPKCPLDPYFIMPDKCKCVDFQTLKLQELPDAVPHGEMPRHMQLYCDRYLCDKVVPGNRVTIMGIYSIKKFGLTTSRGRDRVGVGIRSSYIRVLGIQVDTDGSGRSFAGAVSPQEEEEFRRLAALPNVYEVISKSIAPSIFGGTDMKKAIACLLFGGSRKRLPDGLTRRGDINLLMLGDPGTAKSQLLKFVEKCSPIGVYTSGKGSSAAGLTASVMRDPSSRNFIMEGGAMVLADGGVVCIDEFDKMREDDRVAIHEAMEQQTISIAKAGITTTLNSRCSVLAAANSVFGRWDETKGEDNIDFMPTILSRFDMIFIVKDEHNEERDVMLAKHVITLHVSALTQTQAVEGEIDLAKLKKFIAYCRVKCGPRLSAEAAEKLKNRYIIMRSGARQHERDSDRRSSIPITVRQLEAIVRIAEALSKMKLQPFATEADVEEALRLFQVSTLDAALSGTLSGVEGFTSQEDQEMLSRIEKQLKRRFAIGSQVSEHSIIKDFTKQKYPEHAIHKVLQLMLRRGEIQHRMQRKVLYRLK
Briefly: Induction of ubiquitination of MCM5 in human NCI-H1975 cells incubated for 48 hrs by immunoblot analysis (reference value: 1). The format is cell-based.

Assay [6] has as its target DNA replication licensing factor MCM7 (Homo sapiens) (UniProt P33993). Briefly: Induction of ubiquitination of MCM7 in human NCI-H1975 cells in presence of MG132 incubated for 48 hrs followed by MG132 addition and measured after 12 hrs by immunoblot analysis (reference value: 1.6). It is filed as cell-based.
The target of assay [7] is DNA replication licensing factor MCM2 (Homo sapiens) (UniProt P49736). Briefly: Binding affinity to MCM2 in human NCI-H1975 cells assessed as reduction in MCM2 level measured up to 9 hrs by immunoblot analysis. It is filed as cell-based.
DNA replication licensing factor MCM2 (Homo sapiens), sequence (P49736 whole entry): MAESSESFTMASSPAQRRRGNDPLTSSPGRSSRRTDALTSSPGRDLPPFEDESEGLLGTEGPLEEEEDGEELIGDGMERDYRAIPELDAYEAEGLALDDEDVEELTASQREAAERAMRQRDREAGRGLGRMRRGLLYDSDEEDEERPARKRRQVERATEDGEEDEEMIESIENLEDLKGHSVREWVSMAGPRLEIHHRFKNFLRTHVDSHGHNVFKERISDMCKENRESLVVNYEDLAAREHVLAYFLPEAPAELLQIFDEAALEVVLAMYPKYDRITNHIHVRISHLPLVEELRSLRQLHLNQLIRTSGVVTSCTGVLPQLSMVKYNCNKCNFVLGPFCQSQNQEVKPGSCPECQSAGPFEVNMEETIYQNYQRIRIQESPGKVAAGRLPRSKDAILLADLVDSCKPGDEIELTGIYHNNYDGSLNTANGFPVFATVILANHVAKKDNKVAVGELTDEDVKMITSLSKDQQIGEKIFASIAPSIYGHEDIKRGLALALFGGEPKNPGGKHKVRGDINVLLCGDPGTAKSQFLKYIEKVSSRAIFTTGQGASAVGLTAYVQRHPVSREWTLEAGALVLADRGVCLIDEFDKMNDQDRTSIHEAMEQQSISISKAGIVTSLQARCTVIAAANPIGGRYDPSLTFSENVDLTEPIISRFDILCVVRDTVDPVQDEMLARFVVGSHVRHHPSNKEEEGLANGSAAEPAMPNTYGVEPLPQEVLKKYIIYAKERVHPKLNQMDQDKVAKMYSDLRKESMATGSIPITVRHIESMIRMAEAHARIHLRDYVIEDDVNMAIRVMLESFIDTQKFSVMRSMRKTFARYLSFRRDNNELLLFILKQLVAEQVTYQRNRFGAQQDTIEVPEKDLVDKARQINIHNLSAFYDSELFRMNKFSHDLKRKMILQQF
For assay [8] the target is unchanged. Briefly: Induction of ubiquitination of MCM2 in human NCI-H1975 cells incubated for 24 hrs by magnetic beads technique based immunoblot analysis. It is filed as cell-based.

Calls of active or inactive are those of the source. The calls are words filed in the database; no cut-off is given here.

DNA replication licensing factor MCM7 (Homo sapiens), sequence (P33993 whole entry): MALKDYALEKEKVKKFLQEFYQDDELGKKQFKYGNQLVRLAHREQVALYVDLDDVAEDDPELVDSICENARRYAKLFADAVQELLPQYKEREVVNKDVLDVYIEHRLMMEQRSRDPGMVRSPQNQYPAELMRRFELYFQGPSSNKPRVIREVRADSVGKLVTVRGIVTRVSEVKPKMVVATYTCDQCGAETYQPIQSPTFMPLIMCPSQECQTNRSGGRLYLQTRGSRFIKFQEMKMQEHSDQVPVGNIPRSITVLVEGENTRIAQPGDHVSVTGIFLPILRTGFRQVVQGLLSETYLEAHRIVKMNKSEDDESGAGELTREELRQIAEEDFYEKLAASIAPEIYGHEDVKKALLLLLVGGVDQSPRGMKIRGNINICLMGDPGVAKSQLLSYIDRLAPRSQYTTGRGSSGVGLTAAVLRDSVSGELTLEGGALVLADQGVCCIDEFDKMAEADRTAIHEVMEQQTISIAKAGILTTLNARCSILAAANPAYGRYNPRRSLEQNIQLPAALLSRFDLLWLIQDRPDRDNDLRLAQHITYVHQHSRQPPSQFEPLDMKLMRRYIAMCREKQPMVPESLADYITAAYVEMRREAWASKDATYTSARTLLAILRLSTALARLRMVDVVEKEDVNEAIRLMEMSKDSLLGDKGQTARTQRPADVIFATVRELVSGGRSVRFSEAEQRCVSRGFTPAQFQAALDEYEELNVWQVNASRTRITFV

As a reminder, the IC50 is the concentration that inhibits the measured activity by half. For `Cc1oc2c(c1C(=O)NCCCn1ccnc1)C(=O)c1ccccc1C2=O`, the IC50 in assay [1] was below 100 nM. In addition, the Activity was found to be 27.7% in the assay with NCI-H1975; 0.4 in assay [2]; 1.1 in assay [3]; 0.7 in assay [4]; 0.6 in assay [5]; 0.7 in assay [6]. Further, the outcome in assay [7] and in assay [8] was Active.

Values taken from ChEMBL document CHEMBL4602694, “Suppression of Drug-Resistant Non-Small-Cell Lung Cancer with Inhibitors Targeting Minichromosomal Maintenance Protein” (J Med Chem, 2020).
